By inhibition is commonly meant the change of the read-out against control, counted positive when it falls.

Test [1] addresses Dual specificity mitogen-activated protein kinase kinase 1 (Homo sapiens) (UniProt Q02750). In words: Inhibition of human MEK1 at 10 uM using ERK2 as substrate in presence of [33P]ATP by Hotspot assay relative to control.
In test [2] the target is Mitogen-activated protein kinase 14 (Homo sapiens) (UniProt Q16539). In words: Inhibition of human MAPK p38allpha at 10 uM using myelin basic protein as substrate in presence of [33P]ATP by Hotspot assay relative to control.
Test [3] has as its target RAC-alpha serine/threonine-protein kinase (Homo sapiens) (UniProt P31749). Description: Inhibition of human AKT1 at 10 uM using KGSGSGRPRTSSFAEG as substrate in presence of [33P]ATP by Hotspot assay relative to control.
For test [4], the target named is Receptor tyrosine-protein kinase erbB-2 (Homo sapiens) (UniProt P04626). Description: Inhibition of human HER2 at 10 uM using poly[Glu:Tyr] (4:1) as substrate in presence of [33P]ATP by Hotspot assay relative to control.
Test [5] relates to MDA-MB-468. Description: Growth inhibition of human MDA-MB-468 cells assessed as cell growth at 10 uM incubated for 48 hrs by sulforhodamine B assay relative to control. The format is functional. Conditions: MDA-MB-468, 48 h, read-out: Activity. (In general: Sulforhodamine B stains cellular protein and so reports cell mass.)
Test [6] concerns HCT-15. In words: Growth inhibition of human HCT15 cells assessed as cell growth at 100 uM incubated for 48 hrs by sulforhodamine B assay relative to control. The format is functional. Particulars: HCT-15, 48 h, read-out: Activity.
Test [7] has as its system K562. In words: Growth inhibition of human K562 cells assessed as cell growth at 100 uM incubated for 48 hrs by sulforhodamine B assay relative to control. The format is functional. Conditions: K562, 48 h, read-out: Activity.
Test [8] deals with SF-268. In words: Growth inhibition of human SF268 cells assessed as cell growth at 100 uM incubated for 48 hrs by sulforhodamine B assay relative to control. The format is functional. Particulars: SF-268, 48 h, read-out: Activity.
In test [9] the test system is MDA-MB-468. In words: Growth inhibition of human MDA-MB-468 cells assessed as cell growth at 0.003 uM incubated for 48 hrs by sulforhodamine B assay relative to control. The format is functional. Conditions: MDA-MB-468, 48 h, read-out: Activity.
Test [10] has as its system HCT-116. In words: Growth inhibition of human HCT116 cells assessed as cell growth at 0.5 uM incubated for 48 hrs by sulforhodamine B assay relative to control. The format is functional. Particulars: HCT-116, 48 h, read-out: Activity.
Test [11] relates to SF-539. In words: Growth inhibition of human SF539 cells assessed as cell growth at 5 uM incubated for 48 hrs by sulforhodamine B assay relative to control. Conditions: SF-539, 48 h, read-out: Activity. The format is functional.
Test [12] concerns Hs-578T. Description: Growth inhibition of human Hs 578T cells assessed as cell growth at 5 uM incubated for 48 hrs by sulforhodamine B assay relative to control. The format is functional. Particulars: read-out: Activity.
Test [13] concerns K562. Description: Growth inhibition of human K562 cells assessed as cell growth at 50 uM incubated for 48 hrs by sulforhodamine B assay relative to control. The format is functional. Particulars: K562, 48 h, read-out: Activity.
Test [14] concerns SK-MEL-28. Description: Growth inhibition of human SK-MEL-28 cells assessed as cell growth at 0.005 uM incubated for 48 hrs by sulforhodamine B assay relative to control. The format is functional. Particulars: SK-MEL-28, 48 h, read-out: Activity.
Test [15] deals with 786-0. In words: Growth inhibition of human 786-0 cells assessed as cell growth at 50 uM incubated for 48 hrs by sulforhodamine B assay relative to control. The format is functional. Particulars: 786-0, 48 h, read-out: Activity.
For test [16], the system named is KM12. In words: Growth inhibition of human KM12 cells assessed as cell growth at 50 uM incubated for 48 hrs by sulforhodamine B assay relative to control. Particulars: KM12, 48 h, read-out: Activity. The format is functional.
The subject of test [17] is OVCAR-8. In words: Growth inhibition of human OVCAR8 cells assessed as cell growth at 0.05 uM incubated for 48 hrs by sulforhodamine B assay relative to control. The format is functional. Conditions: OVCAR-8, 48 h, read-out: Activity.
Test [18] concerns MDA-MB-435. Description: Growth inhibition of human MDA-MB-435 cells assessed as cell growth at 0.5 uM incubated for 48 hrs by sulforhodamine B assay relative to control. The format is functional. Particulars: MDA-MB-435, 48 h, read-out: Activity.
Test [19] has as its system UACC-257. Description: Growth inhibition of human UACC257 cells assessed as cell growth at 50 uM incubated for 48 hrs by sulforhodamine B assay relative to control. Particulars: UACC-257, 48 h, read-out: Activity. The format is functional.
Test [20] has as its system NCI-H23. In words: Growth inhibition of human NCI-H23 cells assessed as cell growth at 0.5 uM incubated for 48 hrs by sulforhodamine B assay relative to control. Conditions: NCI-H23, 48 h, read-out: Activity. The format is functional.
Test [21] concerns TK-10. In words: Growth inhibition of human TK10 cells assessed as cell growth at 0.005 uM incubated for 48 hrs by sulforhodamine B assay relative to control. The format is functional. Particulars: TK-10, 48 h, read-out: Activity.
Test [22] relates to PC-3. Description: Growth inhibition of human PC3 cells assessed as cell growth at 0.5 uM incubated for 48 hrs by sulforhodamine B assay relative to control. The format is functional. Conditions: PC-3, 48 h, read-out: Activity.
For test [23], the system named is UACC-257. In words: Growth inhibition of human UACC257 cells assessed as cell growth at 0.005 uM incubated for 48 hrs by sulforhodamine B assay relative to control. The format is functional. Particulars: UACC-257, 48 h, read-out: Activity.
Test [24] concerns HCT-15. In words: Growth inhibition of human HCT15 cells assessed as cell growth at 5 uM incubated for 48 hrs by sulforhodamine B assay relative to control. The format is functional. Conditions: HCT-15, 48 h, read-out: Activity.
For test [25], the system named is IGROV-1. Description: Growth inhibition of human IGROV1 cells assessed as cell growth at 0.005 uM incubated for 48 hrs by sulforhodamine B assay relative to control. The format is functional. Particulars: IGROV-1, 48 h, read-out: Activity.
Test [26] deals with OVCAR-5. Description: Growth inhibition of human OVCAR5 cells assessed as cell growth at 5 uM incubated for 48 hrs by sulforhodamine B assay relative to control. The format is functional. Conditions: OVCAR-5, 48 h, read-out: Activity.
Test [27] deals with NCI-H23. In words: Growth inhibition of human NCI-H23 cells assessed as cell growth at 0.05 uM incubated for 48 hrs by sulforhodamine B assay relative to control. The format is functional. Particulars: NCI-H23, 48 h, read-out: Activity.
In test [28] the test system is U-251. In words: Growth inhibition of human U251 cells assessed as cell growth at 0.5 uM incubated for 48 hrs by sulforhodamine B assay relative to control. The format is functional. Particulars: U-251, 48 h, read-out: Activity.
Test [29] relates to NCI-H226. Description: Growth inhibition of human NCI-H226 cells assessed as cell growth at 0.005 uM incubated for 48 hrs by sulforhodamine B assay relative to control. The format is functional. Conditions: NCI-H226, 48 h, read-out: Activity.
Test [30] deals with T47D. In words: Growth inhibition of human T47D cells assessed as cell growth at 0.005 uM incubated for 48 hrs by sulforhodamine B assay relative to control. Conditions: read-out: Activity. The format is functional.
In test [31] the test system is SNB-75. Description: Growth inhibition of human SNB75 cells assessed as cell growth at 0.5 uM incubated for 48 hrs by sulforhodamine B assay relative to control. The format is functional. Conditions: SNB-75, 48 h, read-out: Activity.
Test [32] relates to Hs-578T. In words: Growth inhibition of human Hs 578T cells assessed as cell growth at 50 uM incubated for 48 hrs by sulforhodamine B assay relative to control. The format is functional. Conditions: read-out: Activity.
The subject of test [33] is SK-MEL-5. In words: Growth inhibition of human SK-MEL-5 cells assessed as cell growth at 50 uM incubated for 48 hrs by sulforhodamine B assay relative to control. The format is functional. Particulars: SK-MEL-5, 48 h, read-out: Activity.

RAC-alpha serine/threonine-protein kinase (Homo sapiens), sequence (P31749 whole entry): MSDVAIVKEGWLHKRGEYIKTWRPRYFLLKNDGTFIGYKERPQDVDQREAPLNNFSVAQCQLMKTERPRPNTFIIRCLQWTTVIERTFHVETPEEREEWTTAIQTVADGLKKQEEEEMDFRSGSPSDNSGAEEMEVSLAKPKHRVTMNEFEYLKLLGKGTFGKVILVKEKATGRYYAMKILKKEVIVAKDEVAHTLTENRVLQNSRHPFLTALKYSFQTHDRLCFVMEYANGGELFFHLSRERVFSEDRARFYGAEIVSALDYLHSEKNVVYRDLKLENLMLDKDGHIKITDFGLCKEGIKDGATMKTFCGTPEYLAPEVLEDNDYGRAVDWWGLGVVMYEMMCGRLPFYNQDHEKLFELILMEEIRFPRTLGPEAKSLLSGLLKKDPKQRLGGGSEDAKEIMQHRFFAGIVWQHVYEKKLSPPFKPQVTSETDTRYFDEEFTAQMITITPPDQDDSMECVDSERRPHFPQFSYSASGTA
Receptor tyrosine-protein kinase erbB-2 (Homo sapiens), sequence (P04626 whole entry): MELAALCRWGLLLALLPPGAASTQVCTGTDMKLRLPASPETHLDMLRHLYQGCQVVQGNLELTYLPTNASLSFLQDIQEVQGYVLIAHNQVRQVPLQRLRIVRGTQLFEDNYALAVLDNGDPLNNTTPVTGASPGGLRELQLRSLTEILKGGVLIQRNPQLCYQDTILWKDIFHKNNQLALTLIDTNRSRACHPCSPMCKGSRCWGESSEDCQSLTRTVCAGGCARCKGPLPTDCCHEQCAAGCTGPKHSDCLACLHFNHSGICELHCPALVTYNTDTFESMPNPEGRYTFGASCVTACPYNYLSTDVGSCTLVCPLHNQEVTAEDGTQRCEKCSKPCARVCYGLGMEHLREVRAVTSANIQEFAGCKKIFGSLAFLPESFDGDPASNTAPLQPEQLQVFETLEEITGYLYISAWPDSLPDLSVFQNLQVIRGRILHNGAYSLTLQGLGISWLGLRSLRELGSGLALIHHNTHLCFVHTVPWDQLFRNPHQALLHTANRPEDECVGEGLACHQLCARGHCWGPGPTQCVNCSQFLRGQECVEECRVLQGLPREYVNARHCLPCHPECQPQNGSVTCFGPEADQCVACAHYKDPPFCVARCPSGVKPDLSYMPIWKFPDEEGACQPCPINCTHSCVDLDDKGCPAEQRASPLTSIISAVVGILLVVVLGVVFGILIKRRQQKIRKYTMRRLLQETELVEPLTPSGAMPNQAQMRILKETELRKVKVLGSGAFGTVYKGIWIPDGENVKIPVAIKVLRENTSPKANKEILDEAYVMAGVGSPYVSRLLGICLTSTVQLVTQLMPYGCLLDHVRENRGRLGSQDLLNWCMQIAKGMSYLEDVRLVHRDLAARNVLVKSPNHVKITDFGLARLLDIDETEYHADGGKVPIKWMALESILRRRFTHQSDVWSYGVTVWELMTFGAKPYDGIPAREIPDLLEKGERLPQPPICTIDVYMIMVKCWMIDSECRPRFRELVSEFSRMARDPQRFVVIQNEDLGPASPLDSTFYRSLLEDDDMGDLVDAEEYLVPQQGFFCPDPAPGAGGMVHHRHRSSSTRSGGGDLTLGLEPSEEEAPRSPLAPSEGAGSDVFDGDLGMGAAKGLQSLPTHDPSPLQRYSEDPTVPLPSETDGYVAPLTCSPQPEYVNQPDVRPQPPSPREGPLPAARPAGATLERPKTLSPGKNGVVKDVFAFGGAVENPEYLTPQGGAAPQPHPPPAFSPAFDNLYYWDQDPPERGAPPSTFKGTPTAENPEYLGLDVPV
Mitogen-activated protein kinase 14 (Homo sapiens), sequence (Q16539 whole entry): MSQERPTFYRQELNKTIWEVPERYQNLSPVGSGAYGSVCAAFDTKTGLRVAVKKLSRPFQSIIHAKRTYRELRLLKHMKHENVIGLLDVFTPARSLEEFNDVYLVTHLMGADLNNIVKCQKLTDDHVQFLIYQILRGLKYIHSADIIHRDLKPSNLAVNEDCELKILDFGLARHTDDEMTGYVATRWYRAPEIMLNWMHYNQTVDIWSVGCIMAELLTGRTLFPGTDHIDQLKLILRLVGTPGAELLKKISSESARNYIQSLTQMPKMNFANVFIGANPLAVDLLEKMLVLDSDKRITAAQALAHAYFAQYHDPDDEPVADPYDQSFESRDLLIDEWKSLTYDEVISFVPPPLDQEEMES
Dual specificity mitogen-activated protein kinase kinase 1 (Homo sapiens), sequence (Q02750 whole entry): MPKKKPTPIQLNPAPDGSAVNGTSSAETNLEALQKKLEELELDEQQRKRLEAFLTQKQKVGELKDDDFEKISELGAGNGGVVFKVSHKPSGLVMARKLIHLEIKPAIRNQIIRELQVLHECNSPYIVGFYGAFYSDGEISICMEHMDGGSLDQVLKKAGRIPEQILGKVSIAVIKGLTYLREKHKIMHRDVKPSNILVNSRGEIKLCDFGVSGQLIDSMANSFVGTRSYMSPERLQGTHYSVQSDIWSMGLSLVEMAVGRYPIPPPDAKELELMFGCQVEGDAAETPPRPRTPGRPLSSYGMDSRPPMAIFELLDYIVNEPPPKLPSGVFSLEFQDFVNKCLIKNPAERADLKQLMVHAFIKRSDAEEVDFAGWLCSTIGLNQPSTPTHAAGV

Consider `COc1cc2cc(Oc3ccc(NC(=O)Nc4ccc(Cl)c(C(F)(F)F)c4)cc3)c(C)nc2cc1OC`, for which the inhibition in [1] was -0.258%; in test [2], 56.4%; in test [3], 0.06%; in test [4] it was -7.21%.

In the case of `COc1cc2cc(Oc3ccc(NC(=O)Nc4cc(C(F)(F)F)cc(C(F)(F)F)c4)cc3)c(C)nc2cc1OC`, the growth at 10 µM in [5] is -36%. For the same compound, the figures for the growth at 100 µM in test [6], in test [7] and in test [8] were -88%, -61% and -71%, respectively.

In the case of `Cc1nc2cc(O)c(O)cc2cc1Oc1ccc(NC(=O)Nc2ccc(Cl)c(Cl)c2)cc1`, the growth at 0.003 µM in test [9] is 100%.

Turning to `COc1cc2cc(Oc3ccc(NC(=O)Nc4cccc(C(F)(F)F)c4)cc3)c(C)nc2cc1OC`, the growth at 0.5 µM turned out to be 88% in [10]; 89% in test [18]; 97% in [20]; 88% in test [22]; 94% in [28]; 77% in test [31]. Also, the growth at 5 µM in test [11] was 26%; in test [12], -8%; in [24], 18%; in test [26], 31%. For the same compound, the growth at 50 µM is -16% in test [13]; -33% in [15]; -59% in [16]; -75% in test [19]; -41% in [32]; -100% in test [33]. The growth at 0.005 µM in test [14] came to 101%; in [21], 92%; in [23], 95%; in test [25], 101%; in test [29], 96%; in test [30], 90%. The growth at 0.05 µM in test [17] came to 103%; in test [27], 99%.

The values above are taken from ChEMBL document CHEMBL3994622, “Design and synthesis of new RAF kinase-inhibiting antiproliferative quinoline derivatives. Part 2: Diarylurea derivatives” (Eur J Med Chem, 2017).
